Data reported in PubChem BioAssay AID624167 (Sanford-Burnham Center for Chemical Genomics, 2012).
Activity calls are given as the source filed them.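 The calls were made as follows: active = mean IC50 for reducing PEG3 promoter reporter signal at or below a set limit, with IC50 above the limit in both counter screens; inactive = the rest, including counter screen hits.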

Key:
PEG-3 [1] = biological target: PEG-3 (UniProt Q6IN02); test: inhibition of PEG-3 promoter-driven reporter – cell-based, HeLa, luciferase, CREF/GAPDH counter-screen panel, dose response (AID 624167); details: HeLa PEG-Prom luciferase reporter, overnight, CREF/GAPDH counter-screens, mean of runs
PEG-3 [2] = test: as above; details: HeLa PEG-Prom luciferase reporter, overnight, CREF/GAPDH counter-screens
[3] = run 1, dose range 1, individual replicate IC50 per panel
[4] = run 2, dose range 1, individual replicate IC50 per panel

PEG-3 (UniProt Q6IN02), sequence (Q6IN02 whole entry, looked up): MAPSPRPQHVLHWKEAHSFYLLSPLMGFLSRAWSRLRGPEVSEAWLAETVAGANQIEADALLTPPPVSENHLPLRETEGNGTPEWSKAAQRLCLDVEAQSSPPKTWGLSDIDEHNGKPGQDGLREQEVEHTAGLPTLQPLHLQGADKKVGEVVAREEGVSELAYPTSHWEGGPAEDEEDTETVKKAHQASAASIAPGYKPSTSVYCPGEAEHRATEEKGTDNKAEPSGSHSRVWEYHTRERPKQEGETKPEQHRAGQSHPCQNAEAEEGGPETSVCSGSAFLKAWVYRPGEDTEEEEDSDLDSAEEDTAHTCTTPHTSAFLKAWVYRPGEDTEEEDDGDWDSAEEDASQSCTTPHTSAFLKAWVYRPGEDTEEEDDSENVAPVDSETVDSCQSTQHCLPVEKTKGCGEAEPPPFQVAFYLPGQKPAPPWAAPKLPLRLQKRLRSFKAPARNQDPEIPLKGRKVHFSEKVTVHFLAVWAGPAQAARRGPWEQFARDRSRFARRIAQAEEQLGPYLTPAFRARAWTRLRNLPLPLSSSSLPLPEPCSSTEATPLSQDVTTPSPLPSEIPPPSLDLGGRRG

| SMILES | IC50 (PEG-3 [1]) | IC50 (PEG-3 [2]; [3]) [µM] | IC50 (PEG-3 [2]; [4]) [µM] |
| --- | --- | --- | --- |
| CCOC(=O)c1cccc(Nc2nc(-c3cccnc3)nc3ccccc23)c1 | 11.8 µM | 12.1 | 11.4 |
| Cc1ccccc1NC(=O)Nc1nc(C(N)C2CCCCC2)cs1 (stereo not given) | inactive | 21.1 | 26.5 |
| Oc1ccc(C23CCCC2C2(CCCC2)c2ccc(O)cc2O3)c(O)c1 (stereo not given) | inactive | 27.2 | 54.4 |
| CCN(CC)CCNc1cccc2sc3ccccc3c(=O)c12 | inactive | 18.3 | 25.6 |
| Cc1ccc(-c2cc(-c3ccc(C)cc3)[n+](-c3ccccc3)c(-c3ccc(C)cc3)c2)cc1 | > 100 µM (inactive) | > 100 | > 100 |
| N=c1n(CCN2CCCC2)c2ccccc2n1CC(O)c1ccc(Cl)c(Cl)c1 (stereo not given) | 13.4 µM | 17.7 | 9.03 |
| COc1nc(N)c(C#N)c(-c2ccc(N(C)CCC#N)cc2)c1C#N | inactive | 6.32 | 35.8 |
| CC1(C(=O)NCc2cccc3ccccc23)CCN1C(=O)Cc1ccc(-c2ccccc2)cc1 (stereo not given) | inactive | 10.3 | > 100 |
| Cc1ccc(NC(=O)Nc2ccnc(-c3cccnc3)n2)cc1 | > 100 µM (inactive) | > 100 | > 100 |
| Cc1ccc(C)c(CN2CCC(CNC(=O)Nc3ccc(F)c(Cl)c3)CC2)c1 | 14.7 µM | 17.3 | 12 |
| COc1ccc(C2c3c(ncn(CCCN4CCOCC4)c3=N)Oc3ccc4ccccc4c32)cc1OC (stereo not given) | 18.7 µM | 20.9 | 16.5 |
| CC(C)CC1C(=O)N(Cc2cn(CCC3OCCO3)nn2)CCS(=O)(=O)N1Cc1ccc(-c2ccc(F)cc2)cc1 (stereo not given) | inactive | 31.3 | 33.2 |
| CC(C)(c1ccccc1)c1ccc(OCC(O)CNC2CCN(Cc3ccccc3)CC2)cc1 (stereo not given) | 15.7 µM | 21.9 | 9.42 |
| CC(=O)NC(c1ccccc1)c1cc(Cl)c2cccnc2c1O (stereo not given) | 9.5 µM | 6.33 | 12.7 |
| COc1cccc(CN(C)C(=O)c2cc(-c3cccs3)nc3ccccc23)c1 | inactive | 24.7 | 30.8 |
| Cc1ccc2[nH]c(=O)c(C3C(C#N)=C(N)Oc4c3ccc3cccnc43)cc2c1 (stereo not given) | inactive | 28.3 | 21.7 |
| NC1=NC[C@H](Cc2ccccc2)N1CCc1cc(C(F)(F)F)cc(C(F)(F)F)c1 | inactive | 46.5 | 17.1 |
| CC(=O)Nc1cccc(-c2cc(NC=O)c3ncc(-c4ccc(C(C)=O)cc4)n3c2)c1 | inactive | 6 | > 100 |
| Cc1ccccc1NC(=O)C(=Cc1ccc(C(=O)O)cc1)C(=O)Nc1ccccc1C | inactive | 37.3 | 74.4 |
| COC(=O)c1ccccc1-c1ccc(/C=N/Nc2nc(N3CCCC3)nc(N3CCCC3)n2)o1 | inactive | 26.8 | 34.7 |
| O=c1c2c3c(sc2nc(N2CCNCC2)n1CCc1ccccc1)CCCCC3 | inactive | 32.1 | 17.4 |
| CC1(C)CC(NC(=O)c2cccc(S(=O)(=O)N(Cc3ccccc3)c3ccccc3)c2)CC(C)(C)N1 | 18.8 µM | 18.6 | 18.9 |

| SMILES | IC50 (PEG-3 [1]) | IC50 (PEG-3 [2]; [3]) [µM] | IC50 (PEG-3 [2]; [4]) [µM] |
| --- | --- | --- | --- |
| Cc1nn(-c2ccccc2)c2c1C(c1ccc([N+](=O)[O-])cc1)N1C(=N2)C(=O)Nc2ccccc21 (stereo not given) | > 100 µM (inactive) | > 100 | > 100 |
| N#Cc1ccc(Cn2cc(C=O)c3ccccc32)cc1 | inactive | 31.6 | 24.6 |
| COC(=O)c1ccc(CNC(=O)Cn2cnc3c(NCc4ccccc4)ncnc32)cc1 | inactive | 29.6 | 15.5 |
| COc1cc(NC(=O)c2cccc(C)c2)ccc1NC(=O)c1cc2ccccc2o1 | 19.3 µM | 12.9 | 25.6 |
| CC(C)(C)c1ccc(/C=N/Nc2ccc(C(=O)O)cc2)cc1 | inactive | 36.7 | 28 |
| COc1ccc(NC(=O)N(C)[C@H]2C[C@H]3c4[nH]c5ccc(-c6cccc(C)c6)cc5c4CCN3C[C@H]2[C@H](C)O)cc1 | inactive | 23.6 | 22.7 |
| COc1cc2ccccc2cc1C(=O)N(CCN(C)C)c1nc2c(OC)ccc(OC)c2s1 | inactive | 30.7 | 21.2 |
| O=C(O)CN1C(=O)/C(=C\c2ccccc2OCc2ccc(Cl)cc2Cl)SC1=S | 16.9 µM | 16.6 | 17.2 |
| CN(C)CC(O)COc1ccc(C(C)(C)c2ccc(OCC(O)CN(C)C)cc2)cc1 (stereo not given) | inactive | 26.8 | > 100 |
| CC(C)(C)C(=O)Nc1cc2nn(-c3ccccc3)nc2cc1Cl | 12.2 µM | 10.9 | 13.5 |
| Cc1ccc(C(=O)N(CCCN(C)C)c2nc3ccc(Cl)cc3s2)cc1C | 18.4 µM | 18.9 | 18 |
| CCCCCCSc1cc(-c2nc3ccc(C)cn3c2NCCCC)ccc1OC | 16.2 µM | 21.4 | 11 |
| Cc1ccc(C2=NC(=O)/C(=C/c3cc(O)c(O)c(Br)c3)S2)cc1 | inactive | 17.1 | 27.1 |
| O=C1OCCC1Sc1nnc(-c2ccc(Cl)cc2Cl)o1 (stereo not given) | inactive | 6.82 | 35.5 |
| CCc1nc(Nc2ccc(N3CCN(C(C)=O)CC3)cc2)c2oc3ccccc3c2n1 | inactive | 28.1 | 94.9 |
| Oc1[nH]c2ccc(Br)cc2c1N=NC(=S)Nc1ccc(F)cc1 | 19.3 µM | 10.5 | 28.1 |
| Cc1cc(C)c2ccc(N)nc2c1O | 15.3 µM | 7.69 | 22.9 |
| c1cc2c3c(cccc3c1)NC1(CCC3(CC1)Nc1cccc4cccc(c14)N3)N2 | inactive | 18.4 | 44.7 |
| CN(C(=O)OC(C)(C)C)c1ccc(-c2nc3ccccc3s2)cc1 | 2.31 µM | < 0.2 | 4.43 |
| c1cncc(-c2nc(NCC3COc4ccccc4O3)c3ccccc3n2)c1 (stereo not given) | inactive | 20.1 | 38.6 |
| Cc1cc(C)c(CN2CCN(CCCn3cnc(C(=O)Nc4ccc(C)c(C)c4)n3)CC2)c(C)c1 | 16.1 µM | 19 | 13.1 |
| Oc1ccc(C[C@H]2CNCCN2CCc2cc(C(F)(F)F)cc(C(F)(F)F)c2)cc1 | inactive | 26.7 | 19.8 |

| SMILES | IC50 (PEG-3 [1]) | IC50 (PEG-3 [2]; [3]) [µM] | IC50 (PEG-3 [2]; [4]) [µM] |
| --- | --- | --- | --- |
| COc1cccc(/C=C2/Sc3ccc(C(=O)NCCCN4CCCC4)cc3NC2=O)c1 | 17.1 µM | 21.4 | 12.8 |
| Cn1nnnc1Sc1ncnc2scc(-c3ccc4c(c3)OCO4)c12 | inactive | 34.5 | 53.6 |
| CCCc1cc(=O)n2[nH]c(C)c(-c3ccc(Cl)cc3)c2n1 | 12.9 µM | 14 | 11.8 |
| Cc1cc(-n2c(SCC(=O)Nc3ccc(F)c(F)c3)nc3n[nH]c(C)c3c2=N)ccc1Cl | inactive | 41 | 30.3 |
| CN(C)C=NC(=O)c1[nH]c2ccc(Cl)cc2c1-c1ccccc1 | 18.9 µM | 18 | 19.9 |
| OCCN1CCN(C2CCC(c3ccc(F)cc3)c3ccc(F)cc32)CC1 (stereo not given) | inactive | 20.4 | 23 |
| O=C(/C=C/c1cc(Br)ccc1O)c1ccco1 | 12.3 µM | 16.1 | 8.44 |
| CC(=O)OCCNc1cc(SCc2ccco2)c2nonc2c1[N+](=O)[O-] | inactive | 26.8 | 20.4 |
| Cc1ccc(-n2cc(CNCCCn3ccnc3C)c(-c3ccc(F)cc3)n2)cc1 | 13 µM | 15.5 | 10.6 |
| COc1cc(OC)c(OC)cc1CCC(C)NCCC(c1ccccc1)c1ccccc1 (stereo not given) | 18.4 µM | 20.3 | 16.5 |
| Cc1cc(Sc2ncnc(N)c2[N+](=O)[O-])ncn1 | 15.2 µM | 18.7 | 11.7 |
| CCCCNc1c(-c2cccc(Sc3ccc(OC)cc3)c2)nc2ccccn12 | 13.6 µM | 16.7 | 10.6 |
| O=C(Sc1cccc2cccnc12)c1ccccc1Br | 13.4 µM | 14 | 12.9 |
| CC[C@@H](O)C[C@H]1CCC[C@@]2(C[C@@H]3OC(=O)/C=C/[C@@](C)(O)[C@@H](O)[C@H](C)[C@@H](O)[C@H](OC4CCC(N(C)C)C(C)O4)[C@@H](O)[C@](C)(O)CCCCC/C=C/[C@@H]4CC(C)(C)O[C@@]4(O)C[C@H](O2)[C@H]3C)O1 (stereo not given in full) | 15.8 µM | 18.2 | 13.4 |
| COc1ccc2sc(-c3ccc(S(C)(=O)=O)cc3)c(C#Cc3cncn3C)c2c1 | inactive | 21.2 | > 100 |
| CC1=C(CC[C@@H](C)CO)OC2CC3C4CCC5CC(O)CCC5(C)C4CC(=O)C3(C)C12 (stereo not given in full) | inactive | 24.7 | 64.2 |
| Cc1ccc(-n2cc(-c3ccccc3)c3c(N4CCOCC4)ncnc32)cc1 | 18.2 µM | 10.8 | 25.7 |
| COc1ccccc1N(C(=O)CCl)c1cn(C(C)=O)c2ccccc12 | inactive | 24.1 | 26.5 |
| Cc1cc(Cl)n2ncc(-c3ccccc3)c2n1 | inactive | 40.1 | > 100 |
| Cc1nc(N2CCN(c3ccccn3)CC2)c2c(C)c(C(=O)Nc3ccccc3F)sc2n1 | inactive | 9.97 | > 100 |
| COc1ccc2nc3n(c(=O)c2c1)-c1cc2ccccc2cc1C(=O)NC3Cc1ccc(O)cc1 (stereo not given) | 17.5 µM | 21.2 | 13.9 |
